Results on one molecule are retold here after article PMC5543288, “Psychostimulant Effect of the Synthetic Cannabinoid JWH-018 and AKB48: Behavioral, Neurochemical, and Dopamine Transporter Scan Imaging Studies in Mice” (Frontiers in Psychiatry, 2017).

Assay [1] deals with spontaneous [3H]-DA efflux from mouse striatal synaptosomes. Kind of assay: Spontaneous [3H]-DA release from striatal synaptosomes. Type of assay: biochemical. The following applies: amphetamine 10 µM, cocaine 100 nM, JWH-018 and AKB48 100 nM and 1 µM. As to the method:
(§1) On the day of the experiment, the animal was euthanized, the brain was rapidly removed, and both striata isolated. Thereafter, a crude synaptosomal (P2) fraction was prepared as follows: the striata were suspended in ice-cold buffered sucrose solution (0.32 M, pH 7.4) and homogenized. The homogenate was centrifuged (10 min, 2,100 g, 4°C) to remove nuclei and debris. The supernatant was further centrifuged at 13,500 g for 20 min at 4°C. For [^3H]-WIN 35,428 binding experiments, the P2 pellet was resuspended in 50 mM Tris–HCl, 100 mM NaCl, pH 7.4. For [^3H]-DA release experiments, the P2 pellet was then resuspended in 5 ml of Kreb’s solution (mM: NaCl 118; KCl 4.4; CaCl2 1.2; MgSO4 1.2; KH2PO4 1.2; NaHCO3 25; glucose 10), gassed 20 min with a mixture of 95% O2 plus 5% CO2 containing [^3H]-DA (50 nM; Perkin Elmer, Monza, Italy), disodium EDTA (0.03 mM), and ascorbic acid (0.05 mM; to prevent [^3H]-DA degradation).
After synaptosomal preparation, 0.5 ml aliquots of the suspension were distributed on microporous filters placed at the bottom of a set of parallel superfusion chambers maintained at 37°C and perfused with aerated (95% O2/5% CO2) Kreb’s solution (0.3 ml/min). After 30 min of superfusion to equilibrate the system, 5-min fractions were collected from the 30th to the 75th min (nine samples). […] At the end of the experiment, the radioactivity of the samples and filters was determined by liquid scintillation spectrometry (LS1800 Beckman). In view of the results obtained, in a separate set of experiments, [^3H]-DA uptake was also evaluated.

Assay [2] has as its system DA release in the nucleus accumbens (NAc) shell. The assay can be described thus: In vivo brain microdialysis, NAc shell extracellular DA. Set-up: species or system mouse. As to the method: Male ICR (CD-1®) mice, 25–30 g (ENVIGO. Harlan Italy; S. Pietro al Natisone, Italy) were anesthetized with Isoflurane (3%; 200 ml/min) and implanted with vertical dialysis probe (1 mm dialyzing portion) prepared with AN69 fibers (Hospal Dasco, Bologna, Italy) in the NAc shell (A + 1.4, L 0.4 from bregma, V-4.8 from dura) according to the mouse brain atlas by Paxinos and Franklin ([40]). On the day following surgery, probes were perfused with Ringer’s solution (147 mM NaCl, 4 mM KCl, 2.2 mM CaCl2) at a constant rate of 1 µl/min. Dialyzate samples (10 µl) were injected into an HPLC equipped with a reverse phase column (C8 3.5 um, Waters, USA) and a coulometric detector (ESA, Coulochem II) to quantify DA. The first electrode of the detector was set at +130 mV (oxidation) and the second at −175 mV (reduction). The composition of the mobile phase was as follows: 50 mM NaH2PO4, 0.1 mM Na2-EDTA, 0.5 mM n-octyl sodium sulfate, 15% (v/v) methanol, pH 5.5. […] At the end of each experiment, animals were sacrificed and their brains removed and stored in formalin (8%) for histological examination to verify the correct placement of the microdialysis probe.

For assay [3], the system named is dopamine (DA) transmission in the NAc shell. Also noted: method as in PMID 26327678. Conditions: 0.25 mg/kg i.p., not at 0.125 or 0.5 mg/kg i.p.; not in NAc core and mPFC; ref [9]; cited from earlier work.
The next assay concerns the target T1, mouse DAT (Mus musculus, UniProt Q61327).
T1 construct: DAT expressed in mouse striatal nerve terminals; from tissue; host or cells: mouse striatum, crude synaptosomal (P2) fraction
Kind of assay: [3H]-WIN 35,428 competition binding, mouse striatal synaptosomes. As for the experimental part: Competition binding experiments were carried out incubating 8 nM [^3H]-WIN 35,428 (specific activity 84 Ci/mmol; Perkin Elmer, Boston, MA, USA) with CHO membranes transfected with human DAT (Perkin Elmer) or mouse striatal synaptosomes with different concentration of the examined compounds for 120 min at 4°C. Non-specific binding was determined in the presence of 1 µM GBR 12783. At the end of the incubation time, bound and free radioactivity were separated by filtering the assay mixture through Whatman GF/B glass fiber filters in a Brandel cell harvester (Brandel, Unterföhring, Germany). Filter bound radioactivity was counted in a Perkin Elmer 2810TR scintillation counter (Perkin Elmer).
as §1

The subject of the next assay is male CD-1 mice. Kind of assay: Spontaneous locomotor activity (ANY-maze video tracking). Type of assay: in vivo, mouse. As to the method:
Drugs were administered by intraperitoneal injection in a volume of 4 μl/g. The used doses of JWH-018 (0.3 and 1 mg/kg i.p.) and AKB48 (0.3 and 1 mg/kg i.p.) were chosen based on previous studies ([6], [7], [9], [10]).
The spontaneous locomotor activity was measured by using the ANY-maze video tracking system (Ugo Basile, application version 4.99 g Beta). The mouse was placed in a square plastic cage (60 cm × 60 cm) located in a sound- and light-attenuated room and motor activity was monitored for 240 min. Four mice were monitored in parallel in each experiment. Parameters measured were distance traveled (meter), total time in the peripheral zone (seconds), total time in the central zone (seconds), and immobility time (seconds; the animal was considered immobile when 95% of his image remained in the same place for at least 2 s). Parameters were analyzed every 15 min for a maximum of 240 min and to avoid mice olfactory cues, cages were carefully cleaned with a dilute (5%) ethanol solution and washed with water between animal trials. All experiments were performed between 9:00 a.m. and 1:00 p.m.

Assay [4] has as its system [3H]-DA uptake in mouse striatal synaptosomes. The assay can be described thus: [3H]-DA uptake in striatal synaptosomes. Type of assay: biochemical. The following applies: GBR 12783 20 nM; JWH-018 and AKB48 100 nM and 1 µM. As to the method: as §1
After synaptosomal preparation, the suspension was maintained under a light and continuous oxygenation (95% O2, 5% CO2) for 20 min at 37°C. Thereafter, 0.5 ml aliquots of striatal synaptosomal suspension were prepared. […] After this period, the reaction was stopped by filtration through microporus nylon filters (0.45 µm, 13 mm; Analytical Technology, Brugherio, Italy). The filters were then washed with 1 ml ice-cold Kreb’s solution and the radioactivity accumulated on synaptosomes was extracted by eluting two times with 1 ml of warm NaOH (1 N) and then determined by liquid scintillation spectrometer. Non-specific uptake was measured by following the same procedure at 0°C.

The structures appear in SMILES notation. Some results are limits rather than exact numbers.

T1 sequence (Q61327 whole entry): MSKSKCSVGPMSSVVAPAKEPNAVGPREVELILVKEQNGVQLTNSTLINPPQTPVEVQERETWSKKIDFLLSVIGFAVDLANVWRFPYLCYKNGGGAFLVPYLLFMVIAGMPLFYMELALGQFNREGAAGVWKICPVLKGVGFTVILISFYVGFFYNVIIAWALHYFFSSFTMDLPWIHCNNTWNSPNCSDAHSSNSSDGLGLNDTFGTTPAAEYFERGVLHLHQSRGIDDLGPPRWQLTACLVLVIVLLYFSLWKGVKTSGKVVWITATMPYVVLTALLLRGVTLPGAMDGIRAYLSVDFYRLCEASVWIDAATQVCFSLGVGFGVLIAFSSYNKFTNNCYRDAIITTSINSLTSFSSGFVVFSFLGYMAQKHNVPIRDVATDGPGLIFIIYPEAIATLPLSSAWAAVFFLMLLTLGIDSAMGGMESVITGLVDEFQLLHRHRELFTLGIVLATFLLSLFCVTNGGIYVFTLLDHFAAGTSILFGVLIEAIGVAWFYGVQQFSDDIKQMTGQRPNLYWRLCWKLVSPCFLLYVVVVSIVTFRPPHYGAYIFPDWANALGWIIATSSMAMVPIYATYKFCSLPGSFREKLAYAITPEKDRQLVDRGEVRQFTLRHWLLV

For `CCCCCn1cc(C(=O)c2cccc3ccccc23)c2ccccc21` [JWH-018, 1-pentyl-3-(1-naphthoyl)indole], the “spontaneous [3H]-DA efflux from striatal synaptosomes” value in assay [1] is “did not affect”. In assay [2] (JWH-018 0.3 mg/kg i.p. (long-lasting), AKB48 0.3 mg/kg i.p. (peak)), the “increase of NAc shell extracellular DA levels (maximal/peak)” value is on record as ~ 150 % of baseline values. Besides, in assay [2] (awake freely moving mice, i.p.: amphetamine 10 mg/kg, cocaine 20 mg/kg, JWH-018 0.3 mg/kg, AKB48 0.3 mg/kg), the “NAc shell extracellular DA levels” value is listed as “significantly increased”. Further, the “dopamine (DA) transmission in the NAc shell” value in assay [3] is “increases”. Also, the inhibition constant Ki at mouse DAT is > 10 µM. Moreover, the “facilitation of spontaneous locomotion after pretreatment with AM 251” value in the assay with male CD-1 mice (JWH-018 0.3 mg/kg, AKB48 1 mg/kg, AM 251 1 mg/kg i.p. 20 min before) was “prevented”. For the same molecule, in the assay on male CD-1 mice (JWH-018 0.3 mg/kg, AKB48 1 mg/kg, SCH23390 0.1 mg/kg i.p. + haloperidol 0.05 mg/kg i.p. 20 min before), the “facilitation of spontaneous locomotion after coadministration of SCH23390 and haloperidol” value is listed as “prevented”. For the same molecule, the “time in the central zone versus peripheral area of the cage” value in the assay on male CD-1 mice (acute i.p.: JWH-018 0.3 mg/kg, AKB48 1 mg/kg) is reported as “spent more time in the central zone”. Besides, in the assay with male CD-1 mice (acute i.p.: JWH-018 0.3 mg/kg, AKB48 1 mg/kg (30 min after administration), amphetamine 10 mg/kg, cocaine 20 mg/kg), the immobility time entry was “reduced the immobility time”. Further, in the assay with male CD-1 mice (acute i.p.: JWH-018 0.3 mg/kg, AKB48 1 mg/kg, amphetamine 10 mg/kg, cocaine 20 mg/kg, monitored 240 min), the “total distance traveled (spontaneous locomotion)” value is given as “induced long-lasting increases”. The “duration of the increase of spontaneous locomotion” value in the assay with male CD-1 mice (acute i.p.: JWH-018 0.3 mg/kg, AKB48 1 mg/kg, cocaine 20 mg/kg) is reported as 90 min. Moreover, the “effect on [3H]-DA uptake” value in assay [4] is on record as “ineffective”.

As usually defined, the Ki is the equilibrium dissociation constant of an inhibitor or competing ligand from its target.
